Holding throughout (assay): tryptophan fluorescence titration
Common to all, as to type: binding

Experiment [1] concerns the target T1, CaiT (Escherichia coli, UniProt P31553).
T1 construct: full-length with C-terminal 6His tag (pET21a), expressed in E. coli JW0039 (delta caiT), Ni-NTA purified; homotrimer (D288A and D288R mostly monomeric); DDM-solubilized or in proteoliposomes
The source says:
(§1) tryptophan fluorescence titration on CaiT

Experiment [2] has as its target T2, CaiT (Escherichia coli, UniProt P31553, D288A).
T2 construct: full-length with C-terminal 6His tag (pET21a), expressed in E. coli JW0039 (delta caiT), Ni-NTA purified; homotrimer (D288A and D288R mostly monomeric); DDM-solubilized or in proteoliposomes
Text: as §1

Experiment [3] has as its target T3, CaiT (Escherichia coli, UniProt P31553, D288R).
T3 construct: full-length with C-terminal 6His tag (pET21a), expressed in E. coli JW0039 (delta caiT), Ni-NTA purified; homotrimer (D288A and D288R mostly monomeric); DDM-solubilized or in proteoliposomes
Text: as §1

Read-outs that look alike come from different tables or passages of the source.

Take `C[N+](C)(C)C[C@H](O)CC(=O)O` [L-carnitine]: the Kd in experiment [1] (read-out: L-carnitine / Kd) is 3.3 ± 0.2 mM; in experiment [2] (read-out: L-carnitine / Kd), 1.8 ± 0.9 mM; in experiment [3] (read-out: L-carnitine / Kd) it was 1.9 ± 1 mM.
Regarding `C[N+](C)(C)CCCC(=O)[O-]` [γ-butyrobetaine], the Kd in experiment [1] (read-out: γ-butyrobetaine / Kd) is 3.4 ± 0.1 mM; in experiment [2] (read-out: γ-butyrobetaine / Kd), 3.3 ± 1.3 mM; in experiment [3] (read-out: γ-butyrobetaine / Kd), 11.4 ± 4.4 mM.

For the origin of these results see PMC6406002, “Comparison of the functional properties of trimeric and monomeric CaiT of Escherichia coli” (Scientific Reports, 2019).
